According to BindingDB's records for doi:10.1021/cc050016r (Uppsala University, 2005):
Several values for one entry are separate records, joined by “and”; a condition that tells them apart may be missing. Identical values can stand only once.

biological target: HIV-1 protease (Human immunodeficiency virus, UniProt Q9YQ34); experiment: Fluorometric Assay
Excerpt: Fluorometric assay using HIV-1 protease.

HIV-1 protease, sequence (Q9YQ34 whole entry): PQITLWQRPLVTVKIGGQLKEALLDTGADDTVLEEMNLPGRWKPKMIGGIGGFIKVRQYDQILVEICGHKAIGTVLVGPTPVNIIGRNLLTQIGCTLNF

| Ki | SMILES |
| --- | --- |
| > 5000 nM | CNC(=O)c1ccccc1CO[C@@H](C(=O)N[C@H](C(=O)NC)C(C)C)[C@H](O)[C@@H](O)[C@@H](OCc1ccccc1C(=O)NC)C(=O)N[C@H](C(=O)NC)C(C)C [HIV-1 Protease Inhibitor, 6a] |
| 700 nM | CNC(=O)[C@@H](NC(=O)[C@H](OCc1ccccc1C(=O)NC(C)(C)C)[C@H](O)[C@@H](O)[C@@H](OCc1ccccc1C(=O)NC(C)(C)C)C(=O)N[C@H](C(=O)NC)C(C)C)C(C)C [HIV-1 Protease Inhibitor, 6b] |
| 600 nM | CCCCNC(=O)c1ccccc1CO[C@@H](C(=O)N[C@H](C(=O)NC)C(C)C)[C@H](O)[C@@H](O)[C@@H](OCc1ccccc1C(=O)NCCCC)C(=O)N[C@H](C(=O)NC)C(C)C [HIV-1 Protease Inhibitor, 6c] |
| 400 nM | CNC(=O)[C@@H](NC(=O)[C@H](OCc1ccccc1C(=O)N1CCCC1)[C@H](O)[C@@H](O)[C@@H](OCc1ccccc1C(=O)N1CCCC1)C(=O)N[C@H](C(=O)NC)C(C)C)C(C)C [HIV-1 Protease Inhibitor, 6d] |
| > 5000 nM | CNC(=O)[C@@H](NC(=O)[C@H](OCc1ccccc1C(=O)N1CCOCC1)[C@H](O)[C@@H](O)[C@@H](OCc1ccccc1C(=O)N1CCOCC1)C(=O)N[C@H](C(=O)NC)C(C)C)C(C)C [HIV-1 Protease Inhibitor, 6e] |
| 200 nM and 196 nM | CNC(=O)[C@@H](NC(=O)[C@H](OCc1ccccc1C(=O)NC1CCCCC1)[C@H](O)[C@@H](O)[C@@H](OCc1ccccc1C(=O)NC1CCCCC1)C(=O)N[C@H](C(=O)NC)C(C)C)C(C)C [HIV-1 Protease Inhibitor, 6f] |
| 700 nM | CNC(=O)[C@@H](NC(=O)[C@H](OCc1ccccc1C(=O)Nc1nccs1)[C@H](O)[C@@H](O)[C@@H](OCc1ccccc1C(=O)Nc1nccs1)C(=O)N[C@H](C(=O)NC)C(C)C)C(C)C [HIV-1 Protease Inhibitor, 6g] |
| 7 nM and 20 nM | CNC(=O)[C@@H](NC(=O)[C@H](OCc1ccccc1C(=O)Nc1ccccc1)[C@H](O)[C@@H](O)[C@@H](OCc1ccccc1C(=O)Nc1ccccc1)C(=O)N[C@H](C(=O)NC)C(C)C)C(C)C [HIV-1 Protease Inhibitor, 6h] |
| 70 nM and 118 nM | CNC(=O)[C@@H](NC(=O)[C@H](OCc1ccccc1C(=O)Nc1cccnc1)[C@H](O)[C@@H](O)[C@@H](OCc1ccccc1C(=O)Nc1cccnc1)C(=O)N[C@H](C(=O)NC)C(C)C)C(C)C [HIV-1 Protease Inhibitor, 6i] |
| 800 nM | CNC(=O)[C@@H](NC(=O)[C@H](OCc1ccccc1C(=O)N1CCc2ccccc21)[C@H](O)[C@@H](O)[C@@H](OCc1ccccc1C(=O)N1CCc2ccccc21)C(=O)N[C@H](C(=O)NC)C(C)C)C(C)C [HIV-1 Protease Inhibitor, 6j] |
| 200 nM | CCOC(=O)c1ccc(NC(=O)c2ccccc2CO[C@@H](C(=O)N[C@H](C(=O)NC)C(C)C)[C@H](O)[C@@H](O)[C@@H](OCc2ccccc2C(=O)Nc2ccc(C(=O)OCC)cc2)C(=O)N[C@H](C(=O)NC)C(C)C)cc1 [HIV-1 Protease Inhibitor, 6k] |
| 6 nM and 8.5 nM | CNC(=O)[C@@H](NC(=O)[C@H](OCc1ccccc1C(=O)Nc1cccc(Cl)c1)[C@H](O)[C@@H](O)[C@@H](OCc1ccccc1C(=O)Nc1cccc(Cl)c1)C(=O)N[C@H](C(=O)NC)C(C)C)C(C)C [HIV-1 Protease Inhibitor, 6l] |
| 2000 nM and 1330 nM | CNC(=O)[C@@H](NC(=O)[C@H](OCc1ccccc1C(=O)NCc1ccccc1)[C@H](O)[C@@H](O)[C@@H](OCc1ccccc1C(=O)NCc1ccccc1)C(=O)N[C@H](C(=O)NC)C(C)C)C(C)C [HIV-1 Protease Inhibitor, 6m] |
| 800 nM | CNC(=O)[C@@H](NC(=O)[C@H](OCc1ccccc1C(=O)Nc1cccc2cnccc12)[C@H](O)[C@@H](O)[C@@H](OCc1ccccc1C(=O)Nc1cccc2cnccc12)C(=O)N[C@H](C(=O)NC)C(C)C)C(C)C [HIV-1 Protease Inhibitor, 6n] |
| 20 nM | CNC(=O)c1cccc(CO[C@@H](C(=O)N[C@H](C(=O)NC)C(C)C)[C@H](O)[C@@H](O)[C@@H](OCc2cccc(C(=O)NC)c2)C(=O)N[C@H](C(=O)NC)C(C)C)c1 [HIV-1 Protease Inhibitor, 7a] |
| 3 nM and 6.5 nM | CCCCNC(=O)c1cccc(CO[C@@H](C(=O)N[C@H](C(=O)NC)C(C)C)[C@H](O)[C@@H](O)[C@@H](OCc2cccc(C(=O)NCCCC)c2)C(=O)N[C@H](C(=O)NC)C(C)C)c1 [HIV-1 Protease Inhibitor, 7b] |
| 200 nM | CNC(=O)[C@@H](NC(=O)[C@H](OCc1cccc(C(=O)N2CCCC2)c1)[C@H](O)[C@@H](O)[C@@H](OCc1cccc(C(=O)N2CCCC2)c1)C(=O)N[C@H](C(=O)NC)C(C)C)C(C)C [HIV-1 Protease Inhibitor, 7c] |
| 300 nM | CNC(=O)[C@@H](NC(=O)[C@H](OCc1cccc(C(=O)N2CCOCC2)c1)[C@H](O)[C@@H](O)[C@@H](OCc1cccc(C(=O)N2CCOCC2)c1)C(=O)N[C@H](C(=O)NC)C(C)C)C(C)C [HIV-1 Protease Inhibitor, 7d] |
| 20 nM | CNC(=O)[C@@H](NC(=O)[C@H](OCc1cccc(C(=O)NC2CCCCC2)c1)[C@H](O)[C@@H](O)[C@@H](OCc1cccc(C(=O)NC2CCCCC2)c1)C(=O)N[C@H](C(=O)NC)C(C)C)C(C)C [HIV-1 Protease Inhibitor, 7e] |
| 7 nM | CNC(=O)[C@@H](NC(=O)[C@H](OCc1cccc(C(=O)Nc2ccccc2)c1)[C@H](O)[C@@H](O)[C@@H](OCc1cccc(C(=O)Nc2ccccc2)c1)C(=O)N[C@H](C(=O)NC)C(C)C)C(C)C [HIV-1 Protease Inhibitor, 7f] |
| 2 nM and 2.9 nM | CNC(=O)[C@@H](NC(=O)[C@H](OCc1cccc(C(=O)NCc2ccccc2)c1)[C@H](O)[C@@H](O)[C@@H](OCc1cccc(C(=O)NCc2ccccc2)c1)C(=O)N[C@H](C(=O)NC)C(C)C)C(C)C [HIV-1 Protease Inhibitor, 7g] |
